# Measurements: article PMC11917140, “Mining the UniProtKB/Swiss‐Prot database for antimicrobial peptides” (Protein Science : A Publication of the Protein Society, 2025)
# Where two headings read alike, the source gives them in different places. Residues, ends and D or L forms follow the SMILES beside them. No end group written: not given here.
# Key:
# [1] = tested on: Escherichia coli ATCC 25922; format: cell-based; conditions: for MBC, E. coli ATCC 25922: ATCC 25922, 24 h
# Experimental: (§1) To measure the antimicrobial activity of our selected putative AMPs in vitro, broth microdilution assays were conducted to determine the minimum inhibitory and minimum bactericidal concentrations (MICs and MBCs, respectively), as outlined by the Clinical and Laboratory Standards Institute [CLSI] ([2015]). The adaptations for testing cationic AMPs, as described previously (Wiegand et al., [2008]), were incorporated. The selected peptides were tested against laboratory isolates of E. coli 25922 and S. aureus 29213, which were purchased from the American Type Culture Collection (ATCC; Manassas, VA, USA). Bacteria from frozen stocks were streaked onto nonselective Columbia blood agar with 5% sheep blood (Oxoid) and incubated for 18–24 h at 37°C. To ensure the uniform colony health before the assay, 2–4 colonies were streaked onto a new agar plate and incubated for another 18–24 h at 37°C on the next day. To create a standardized bacterial inoculum, isolated colonies were suspended in Mueller‐Hinton Broth (MHB; Sigma‐Aldrich, St. Louis, MO, USA). The suspension was adjusted to an optical density of 0.08–0.1 at 600 nm, which corresponds to a 0.5 McFarland standard of approximately 1–2 × 10^8 colony‐forming units (CFU)/mL. The inoculum was then diluted 1:250, resulting in a final concentration of 5 ± 3 × 10^5 CFU/mL. The target bacterial density was confirmed by measuring the total viability counts from the final tested inoculum.
# (§2) The selected putative AMPs were purchased from and synthesized by GenScript (Piscataway, NJ, USA) in lyophilized format. The peptides were stored at −20°C and were suspended in sterile ultrapure water prior to testing. A two‐fold serial dilution of 1280 to 2.5 μg/mL was prepared in sterile 96‐well polypropylene microtiter plates (Greiner Bio‐One #650261, Kremsmünster, Austria). Then, 100 μL of the standardized bacterial inoculum was added to each well, resulting in a final AMP testing range of 128 to 0.25 μg/mL. The MIC values were determined as the lowest peptide concentration in which no visible bacterial growth was observed after a 20–24 h incubation at 37°C. To determine the MBC values, well contents of the MIC and the two adjacent wells containing the two‐ and four‐fold higher peptide concentrations were plated onto nonselective nutrient agar. The concentration in which 99.9% of the inoculum was killed after an incubation for 24 h at 37°C was reported as the MBC.
# (§3) In our tests, we used Ranatuerin‐4—a known AMP from the American bullfrog (Goraya et al., [1998]), and an in‐house peptide [TKPKG]3 (OT15) as the positive and negative control peptides, respectively. We note that OT15 was truncated and derived from a negative control peptide [TKPKG]4 (OT20), not antimicrobial but sharing similar characteristics to AMPs, used in previous studies (Horváti et al., [2017]).
# [2] = tested on: Staphylococcus aureus ATCC 29213; format: cell-based
# Experimental: as §1, §2, §3
# [3] = broth microdilution (CLSI, adapted for cationic AMPs), MHB, 5 ± 3 × 10^5 CFU/mL, 20–24 h at 37°C, tested 0.25–128 μg/mL, range from three independent experiments in duplicate, one maximum and one minimum data point dropped
# [4] = concentration killing 99.9% of inoculum, plated on nutrient agar, 24 h at 37°C, range from three independent experiments in duplicate, one maximum and one minimum data point dropped
Molecule,"MIC, E. coli ATCC 25922 ([1]; ATCC 25922) [µg/mL]","MBC, E. coli ATCC 25922 [1] [µg/mL]","MIC, S. aureus ATCC 29213 ([2]; ATCC 29213) [µg/mL]","MBC, S. aureus ATCC 29213 ([2]; ATCC 29213, 24 h) [µg/mL]","MIC, E. coli ATCC 25922 [1, 3] [µg/mL]","MIC, S. aureus ATCC 29213 [2, 3] [µg/mL]","MBC, S. aureus ATCC 29213 [2, 4] [µg/mL]"
CSCC[C@H](NC(=O)[C@H](C)NC(=O)[C@H](CCC(=O)O)NC(=O)[C@H](Cc1c[nH]c2ccccc12)NC(=O)[C@H](CCCNC(=N)N)NC(=O)[C@@H](N)[C@@H](C)O)C(=O)N[C@@H](CCCCN)C(=O)N[C@@H](C)C(=O)N[C@@H](CCCCN)C(=O)N[C@@H](C)C(=O)N[C@H](C(=O)N[C@@H](CCC(=O)O)C(=O)N[C@@H](CC(C)C)C(=O)N[C@@H](CCCNC(=N)N)C(=O)N[C@H](C(=O)N[C@@H](CS)C(=O)N[C@@H](CS)C(=O)N[C@@H](C)C(=O)N[C@@H](CCCNC(=N)N)C(=O)N[C@@H](CCCNC(=N)N)C(=O)N[C@@H](CCCCN)C(=O)N[C@@H](CCCNC(=N)N)C(=O)O)C(C)C)[C@@H](C)O [HoSa2] (H-TRWEAMKAKATELRVCCARRKR-OH; N-terminus and C-terminus assumed),> 128,> 128,> 128,> 128,,,
CSCC[C@H](NC(=O)CNC(=O)[C@H](CO)NC(=O)[C@H](CCCNC(=N)N)NC(=O)[C@@H](NC(=O)[C@H](CO)NC(=O)[C@H](Cc1ccccc1)NC(=O)CNC(=O)[C@H](Cc1ccccc1)NC(=O)[C@@H](NC(=O)[C@H](CO)NC(=O)[C@H](CCCNC(=N)N)NC(=O)[C@H](CCCNC(=N)N)NC(=O)[C@@H](NC(=O)[C@H](C)NC(=O)[C@H](CS)NC(=O)[C@H](Cc1ccccc1)NC(=O)[C@H](CCC(N)=O)NC(=O)[C@H](C)NC(=O)[C@H](CCCNC(=N)N)NC(=O)CNC(=O)[C@H](C)NC(=O)[C@H](Cc1ccc(O)cc1)NC(=O)[C@H](C)NC(=O)[C@H](Cc1c[nH]c2ccccc12)NC(=O)[C@H](CCC(N)=O)NC(=O)[C@H](CO)NC(=O)[C@H](Cc1c[nH]c2ccccc12)NC(=O)[C@@H](N)CCCNC(=N)N)C(C)C)C(C)C)C(C)C)C(=O)N[C@H](C(=O)N[C@@H](CS)C(=O)N[C@@H](CCCNC(=N)N)C(=O)N1CCC[C@H]1C(=O)N[C@@H](CCCNC(=N)N)C(=O)N[C@@H](CCCNC(=N)N)C(=O)O)C(C)C [MuMu1] (H-RWSQWAYAGRAQFCAVRRSVFGFSVRSGMVCRPRR-OH; N-terminus and C-terminus assumed),≥ 128,,> 128,> 128,,,
CC[C@H](C)[C@H](NC(=O)[C@H](CC(C)C)NC(=O)[C@H](CC(=O)O)NC(=O)[C@H](CCCNC(=N)N)NC(=O)[C@H](CO)NC(=O)[C@H](CS)NC(=O)[C@H](Cc1c[nH]cn1)NC(=O)[C@H](Cc1c[nH]cn1)NC(=O)[C@H](Cc1c[nH]cn1)NC(=O)[C@H](Cc1ccc(O)cc1)NC(=O)[C@H](CC(C)C)NC(=O)[C@H](Cc1ccccc1)NC(=O)[C@H](CC(N)=O)NC(=O)[C@H](CC(C)C)NC(=O)[C@H](CC(C)C)NC(=O)[C@H](Cc1ccc(O)cc1)NC(=O)[C@H](CO)NC(=O)[C@H](CS)NC(=O)[C@@H](NC(=O)[C@H](Cc1c[nH]c2ccccc12)NC(=O)[C@H](Cc1ccccc1)NC(=O)[C@@H](NC(=O)[C@H](Cc1c[nH]c2ccccc12)NC(=O)[C@H](CC(N)=O)NC(=O)[C@H](CCCCN)NC(=O)[C@H](C)NC(=O)[C@H](Cc1c[nH]c2ccccc12)NC(=O)[C@H](CC(=O)O)NC(=O)[C@H](Cc1c[nH]c2ccccc12)NC(=O)[C@H](C)N)C(C)C)[C@@H](C)O)C(=O)N[C@@H](CCCNC(=N)N)C(=O)N[C@@H](CCCNC(=N)N)C(=O)O [ScPo1] (H-AWDWAKNWVFWTCSYLLNFLYHHHCSRDLIRR-OH; N-terminus and C-terminus assumed),> 128,> 128,> 128,> 128,,,
ARLDVAAEFRKKWNKWALSRGKR [SuSc1],,,,,128,> 128,> 128
DLWFGLKTEGELAFVKRTIFDVIYKSAKRKR [ArTh10],> 128,> 128,> 128,> 128,,,
"VLKKSEIRIDFISRTILHI [MoIn1, putative AMP mined from UniProt Q09WW0, Morus indica]",,,,,,> 128,> 128
